# Several values for one entry are separate records, joined by “and”; a condition that tells them apart may be missing. Equal entries are not always repeated.
# Key:
# D1 receptors = D1 receptors (Homo sapiens, UniProt P21728); experiment: Ligand binding screen at 10 μM
# D25 receptors = D25 receptors (Homo sapiens, UniProt P14416); experiment: Ligand binding screen at 10 μM
# M1 receptors = M1 receptors (Homo sapiens, UniProt P11229); experiment: Ligand binding screen at 10 μM
# M3 receptors = M3 receptors (Homo sapiens, UniProt P20309); experiment: Ligand binding screen at 10 μM
# 5HT3 receptors = 5HT3 receptors (Homo sapiens, UniProt P46098); experiment: Ligand binding screen at 10 μM
# [1] = Brain-to-plasma ratio in rats; assay type: in vivo; conditions: male, Sprague-Dawley, rat, po, 10 mg/kg, brain-to-plasma ratio of NDMC
# Method: The pharmacokinetics of clozapine and N-desmethylclozapine (NDMC) was evaluated in rats after intravenous (i.v.) and oral (p.o.) dosing. Cmax, Tmax and bioavailability after p.o. dosing and the volume of distribution (Vss), terminal plasma half-life (T1/2) and clearance (CLs) after i.v. dosing were determined. […] Animals were euthanised and brain and plasma samples obtained at 60 or 240 minutes post-dose, depending on study group. The levels of NDMC and clozapine were measured in each sample.
# The pharmacokinetic study described above included an initial assessment of the distribution of NDMC into brain.
# [2] = Serum levels during clozapine treatment of schizophrenic patients; assay type: in vivo, human
# Method: The analysis was adjusted for baseline level of symptom severity, age, and dose, since dose was not fixed. […] Regarding co-treatment with anticholinergic agents, only two subjects in this sample were treated with benztropine. […] Lastly, ten of the patients in this study were treated with benzodiazepines at the time the levels of clozapine and NDMC were measured.
# Patients were classified as treatment resistant or not by standard criteria (Kane et al 1988), and clinical ratings and neuropsychological test scores were obtained by trained raters who were blinded to plasma drug levels.
# cFOS expression in brain = conditions: s.c. 7.5 and 30.0 mg/kg; two hours; western blotting (Young et al.); cited from earlier work
# M3 muscarinic receptor = M3 muscarinic receptor (Homo sapiens, UniProt P20309); experiment: R-SAT agonist assay
# M5 muscarinic receptor = biological target: T1, M5 muscarinic receptor (Homo sapiens, UniProt P08912); experiment: R-SAT competitive antagonist assay; conditions: nr = no significant antagonist or inverse agonist activity up to 1 μM, nr* = nr but significant agonist activity
# T1 sequence (P08912 1-532): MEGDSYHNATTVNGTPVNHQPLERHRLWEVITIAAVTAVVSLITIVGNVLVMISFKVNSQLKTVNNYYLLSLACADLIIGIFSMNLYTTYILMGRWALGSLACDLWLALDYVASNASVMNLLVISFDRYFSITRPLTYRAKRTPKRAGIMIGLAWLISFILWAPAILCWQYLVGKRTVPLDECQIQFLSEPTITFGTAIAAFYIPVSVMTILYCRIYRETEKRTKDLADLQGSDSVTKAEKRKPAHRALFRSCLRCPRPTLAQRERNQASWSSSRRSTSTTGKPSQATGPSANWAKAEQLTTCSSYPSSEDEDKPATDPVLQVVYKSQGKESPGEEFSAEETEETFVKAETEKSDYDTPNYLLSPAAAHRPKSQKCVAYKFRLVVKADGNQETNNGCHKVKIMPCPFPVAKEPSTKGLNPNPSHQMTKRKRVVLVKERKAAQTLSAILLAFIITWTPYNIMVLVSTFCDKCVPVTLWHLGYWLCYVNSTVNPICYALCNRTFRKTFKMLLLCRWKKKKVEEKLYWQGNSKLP
# [3] = system: apomorphine-induced climbing; experiment: Reversal of apomorphine-induced climbing; conditions: s.c.
# M4 muscarinic receptor = biological target: T2, M4 muscarinic receptor (Homo sapiens, UniProt P08173); experiment: R-SAT agonist assay; assay type: cell-based; set-up: expressed in transfected cells; host or cells: NIH/3T3; conditions: relative to carbachol, No response/nr = no agonist activity up to 10 μM
# T2 sequence (P08173 1-479): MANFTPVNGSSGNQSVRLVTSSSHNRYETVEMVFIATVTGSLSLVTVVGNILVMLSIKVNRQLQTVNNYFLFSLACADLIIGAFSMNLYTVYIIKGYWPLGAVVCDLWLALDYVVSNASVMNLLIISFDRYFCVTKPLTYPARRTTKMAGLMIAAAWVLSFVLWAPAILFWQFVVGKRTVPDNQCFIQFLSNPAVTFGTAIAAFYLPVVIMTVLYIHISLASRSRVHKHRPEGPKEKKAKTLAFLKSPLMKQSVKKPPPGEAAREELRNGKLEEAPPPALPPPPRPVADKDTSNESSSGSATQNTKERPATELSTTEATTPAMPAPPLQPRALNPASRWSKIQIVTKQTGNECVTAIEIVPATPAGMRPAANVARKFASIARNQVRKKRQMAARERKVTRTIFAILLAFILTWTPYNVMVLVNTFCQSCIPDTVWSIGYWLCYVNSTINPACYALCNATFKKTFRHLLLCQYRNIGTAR
# [4] = clozapine-treated schizophrenics
# [5] = clozapine-treated treatment resistant schizophrenics
# Chain of M3 muscarinic receptor (P20309 whole entry): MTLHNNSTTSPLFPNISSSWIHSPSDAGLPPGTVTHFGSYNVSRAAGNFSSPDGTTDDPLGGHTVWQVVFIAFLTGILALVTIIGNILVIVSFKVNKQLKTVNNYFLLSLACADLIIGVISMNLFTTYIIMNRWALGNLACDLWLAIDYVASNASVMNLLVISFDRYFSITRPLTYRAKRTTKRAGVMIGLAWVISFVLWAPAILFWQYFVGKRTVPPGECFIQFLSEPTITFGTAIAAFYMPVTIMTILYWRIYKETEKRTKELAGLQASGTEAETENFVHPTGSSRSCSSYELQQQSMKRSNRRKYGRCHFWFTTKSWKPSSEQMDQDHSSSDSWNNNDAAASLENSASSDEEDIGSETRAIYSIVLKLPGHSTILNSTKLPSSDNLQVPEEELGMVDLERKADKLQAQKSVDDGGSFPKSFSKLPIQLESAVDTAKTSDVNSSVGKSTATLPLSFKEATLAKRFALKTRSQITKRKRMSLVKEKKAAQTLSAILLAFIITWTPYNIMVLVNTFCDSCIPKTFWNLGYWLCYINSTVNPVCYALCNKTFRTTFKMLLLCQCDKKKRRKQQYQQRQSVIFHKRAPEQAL
# Chain of M3 receptors (P20309 whole entry): as above
# Chain of D1 receptors (P21728 whole entry): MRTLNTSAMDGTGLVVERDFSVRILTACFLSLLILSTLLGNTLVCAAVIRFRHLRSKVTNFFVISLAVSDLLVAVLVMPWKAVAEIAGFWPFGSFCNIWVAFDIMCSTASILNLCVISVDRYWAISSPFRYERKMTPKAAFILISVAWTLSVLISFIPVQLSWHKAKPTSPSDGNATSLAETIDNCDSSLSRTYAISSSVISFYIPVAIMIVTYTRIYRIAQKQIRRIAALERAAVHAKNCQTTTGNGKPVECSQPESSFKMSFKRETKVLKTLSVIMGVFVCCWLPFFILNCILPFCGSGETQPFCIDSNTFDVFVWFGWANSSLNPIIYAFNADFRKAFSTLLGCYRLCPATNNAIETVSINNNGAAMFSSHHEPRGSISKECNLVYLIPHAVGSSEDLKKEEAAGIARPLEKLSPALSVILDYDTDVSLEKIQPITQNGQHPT
# Chain of D25 receptors (P14416 1-414 isoform P14416-2): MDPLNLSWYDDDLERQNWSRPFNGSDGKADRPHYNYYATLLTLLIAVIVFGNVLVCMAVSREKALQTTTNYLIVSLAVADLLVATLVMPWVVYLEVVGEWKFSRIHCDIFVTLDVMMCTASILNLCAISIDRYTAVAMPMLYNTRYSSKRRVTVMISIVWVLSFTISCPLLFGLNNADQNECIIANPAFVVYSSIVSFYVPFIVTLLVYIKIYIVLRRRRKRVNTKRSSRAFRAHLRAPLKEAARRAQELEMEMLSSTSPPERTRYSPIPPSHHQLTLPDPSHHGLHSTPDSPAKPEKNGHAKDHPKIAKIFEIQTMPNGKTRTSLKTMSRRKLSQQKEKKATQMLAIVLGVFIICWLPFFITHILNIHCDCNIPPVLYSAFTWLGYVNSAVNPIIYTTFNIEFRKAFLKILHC
# Chain of 5HT3 receptors (P46098 24-478): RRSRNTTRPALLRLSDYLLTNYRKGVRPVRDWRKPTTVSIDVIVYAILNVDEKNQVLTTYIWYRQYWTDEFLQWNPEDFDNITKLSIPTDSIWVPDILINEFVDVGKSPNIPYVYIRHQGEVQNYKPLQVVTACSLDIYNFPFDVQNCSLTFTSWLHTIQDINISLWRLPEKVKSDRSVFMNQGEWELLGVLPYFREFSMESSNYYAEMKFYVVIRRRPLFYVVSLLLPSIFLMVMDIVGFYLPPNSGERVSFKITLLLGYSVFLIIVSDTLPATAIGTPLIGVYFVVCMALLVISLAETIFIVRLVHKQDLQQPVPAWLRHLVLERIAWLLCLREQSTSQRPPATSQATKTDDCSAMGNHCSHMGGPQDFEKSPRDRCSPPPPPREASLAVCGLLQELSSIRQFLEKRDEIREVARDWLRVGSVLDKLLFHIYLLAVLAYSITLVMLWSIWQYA
# Chain of M1 receptors (P11229 whole entry): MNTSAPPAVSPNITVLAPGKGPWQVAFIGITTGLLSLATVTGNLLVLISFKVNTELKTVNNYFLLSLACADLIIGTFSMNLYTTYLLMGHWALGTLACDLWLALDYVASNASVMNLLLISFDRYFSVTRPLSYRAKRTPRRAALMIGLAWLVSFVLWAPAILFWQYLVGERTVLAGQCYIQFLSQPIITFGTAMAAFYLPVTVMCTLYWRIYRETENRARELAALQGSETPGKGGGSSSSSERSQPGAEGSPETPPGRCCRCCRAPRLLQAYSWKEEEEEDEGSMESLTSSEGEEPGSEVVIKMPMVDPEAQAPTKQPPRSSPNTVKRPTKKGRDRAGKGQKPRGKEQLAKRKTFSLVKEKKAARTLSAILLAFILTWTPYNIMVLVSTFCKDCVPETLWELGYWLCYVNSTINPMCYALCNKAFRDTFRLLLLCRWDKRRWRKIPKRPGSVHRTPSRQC
smiles,measurement,setting,value
"Clc1ccc2c(c1)N=C(N1CCNCC1)c1ccccc1N2 [NDMC, 8-chloro-11-(1-piperazinyl)-5H-dibenzo [b,e][1,4] diazepine]",inhibition at 10 µM,D1 receptors,≥ 90%
same,inhibition at 10 µM,D25 receptors,≥ 90%
same,inhibition at 10 µM,M1 receptors,≥ 90%
same,inhibition at 10 µM,M3 receptors,≥ 90%
same,inhibition at 10 µM,5HT3 receptors,≥ 90%
same,Kp at 1 h,[1]; 60 minutes after oral 10 mg/kg NDMC,0.36 ± 0.16
same,Kp at 1 h,[1]; 60 minutes after oral clozapine,0.26 ± 0.07
same,Kp at 4 h,[1]; 240 minutes after oral 10 mg/kg NDMC,1 ± 0.4
same,Kp at 4 h,[1]; 240 minutes after oral clozapine,2.6 ± 0.8
same,"Serum level, All Subjects at 6 Months (92)",[2]; [4],235 ± 190 ng/mL
same,"Serum level, All Subjects at 6 Weeks (86)",[2]; [4],194 ± 136 ng/mL
same,"Serum level, Non-Responders (25)",[2]; [5],171 ± 123 ng/mL
same,"Serum level, Responders (26)",[2]; [5],308 ± 243 ng/mL
same,"Serum level, All TR Subjects (59)","[2]; clozapine-treated treatment resistant schizophrenics, drawn 12 hours after last clozapine dose",260 ± 203 ng/mL
same,cFOS expression in brain regions,cFOS expression in brain,"induction of cFOS expression in the pre-frontal cortex and nucleus accumbens, but not in striatum"
same,EC50,"M3 muscarinic receptor; M3 pEC50, R-SAT agonist",324 nM and 316 nM
same,M3 Efficacy,"M3 muscarinic receptor; R-SAT, relative to carbachol, No response/nr = no agonist activity up to 10 μM",27 ± 4%
same,"pKi M5, competitive antagonist",M5 muscarinic receptor,nr*
same,"minimal effective dose, reduction of apomorphine-induced climbing",[3],> 100 mg/kg
same,M4 Efficacy,M4 muscarinic receptor,87 ± 8%

# — patent US20050085463A1 (priority 2003, published 2005)
